This note sets out measurements from a melting point compilation (Tetko et al.; mined from patent text by program, amines drawn as free bases though some values may be those of a salt).

As a reminder, the melting point is the temperature of the solid-liquid transition.

A value given as a limit tells only on which side of the number the result lay.

`CNC(=O)C(NC(=O)C(CC(C)C)C(CC(=O)OC)SC(C)=O)C(C)OCc1ccccc1` (centres undefined) showed a melting point of 105 to 106 °C.
The figure for `Cc1nc2c(Cl)c(NC(=O)c3cc(Cl)ccc3Cl)ccc2s1` is 175 °C.
Under `CC(=O)Oc1ccc2cc(NCCCCNC(=O)OC(C)(C)C)c(=O)oc2c1` stands 120 °C.
The figure for `COc1ccc(C2=NNC(=O)C(C)C2)cc1` (centres undefined) is 203 to 206 °C.
In turn, `CCC(OC)C(=O)Nc1ccc(C2=NNC(=O)CC2C)cc1` (centres undefined) came in with a melting point of 151 to 152 °C.
The figure for `CCOC(=O)c1nc2scc(COC(=O)c3ccc(CO)cc3)c2c(=O)[nH]1` is 196 °C; for `OC1(c2cccc(C(F)(F)F)c2)CCN(CCCC2(c3ccc(F)cc3F)OCCO2)CC1` it is 90 to 93 °C.
The figure for `O=C(O)C(Cc1ccccc1)C(=O)NCc1cccc2ccccc12` (centres undefined) is 142 to 145 °C; for `O=S1(=O)CCCN1Cc1ccncc1` it is 82 °C; for `CCCCCCOc1nc(N)nc2c1ncn2C1C=CC(CO)C1` (centres undefined) it is 90 to 92 °C.
`CC(C)(C)OC(=O)NC1CCc2cccc(-c3ccccc3)c2CC1=O` (centres undefined) displayed a melting point of 173 to 174 °C.
On to `N=C(NCc1cnccn1)NN=Cc1c(Cl)cccc1Cl`, for which the melting point was in the range of 168 to 169 °C.
The figure for `Cc1nn(-c2cc(O)c(Cl)cc2F)c(C)c1C` is 158 to 160 °C; for `c1ccc(-c2cnc3c(c2)nnc2cncn23)cc1` it is 225 to 227 °C; for `C/C(=C\c1ccc(C(=O)O)cc1)c1ccc2c(c1)C(C)(C)CCO2` it is 179 to 181 °C.
Under `NC(=O)CNC(=O)c1cc2c(Oc3ccc(Cl)cc3)cncc2s1` stands 222 to 225 °C; under `COC(=O)C=Cc1ccc(OCCc2nc(-c3ccccc3)oc2C)cc1`, 114 to 115 °C.
Under `Nc1cccc(Oc2ccc(C(=O)c3cccc(C(=O)c4ccc(Oc5cccc(N)c5)cc4)c3)cc2)c1` stands 147 to 149 °C; under `Cc1sc(C(=O)O)c2c1-c1c(cnn1Cc1ccccc1)CC2`, 231 to 232 °C; under `COc1cccc2c1Cc1c(OC)cccc1C2(CCO)CCO`, 193 to 196 °C.
For `[N-]=[N+]=NC[C@H]1CN(c2ccc(N3C[C@@H]4C[C@H]3CO4)c(F)c2)C(=O)O1`, the melting point fell in the range of 101 to 102 °C.
For `Clc1ncccc1-c1nnsc1-c1cccnc1Cl`, the melting point is 146 to 148 °C.
On to `CC(=O)Oc1cc(C(C)C)c(OC(C)=O)c(C(C)C)c1`, for which the melting point fell in the range of 73.5 to 75 °C.
`COC(=O)C1(Cl)SC=CC1=O` (centres undefined) registered a melting point of 70 to 71 °C.
The figure for `CC(=O)N1CCNC1=Nc1ccc(Cl)cc1Cl` is 168 to 169 °C; for `COc1cc(C=CC(=O)c2ccc(-c3cccs3)s2)ccc1O` it is 166 to 168 °C; for `CCCCN(CCCC)c1ccc(C=Cc2ccc(C=CC3=C(C#N)C(=C(C#N)C#N)OC3(C)C)s2)c(OC)c1` it is 191 to 192 °C.
As to `Cn1cc(Oc2cc(Cl)cc(Cl)c2)c(=O)c(-c2cccc(C(F)(F)F)c2)c1`, the melting point lay in the range of 128 to 130 °C.
As for `COc1ccc(Oc2ccc(C(=O)N(C(C)C)C3CCCCC3)cc2)cc1OC`, the melting point was determined as 107 °C.
The figure for `COC(=O)C(C)n1nnc2ccc(O)cc21` (centres undefined) is 132 to 134 °C.
The compound `Cc1nc2c3c(ccc2n1C)[C@@H](O)[C@H](O)[C@@H](c1ccccc1)N3` gave a melting point of 225 °C.
Under `CCCc1nc(CO)c[nH]1` stands 95 to 101 °C; under `N#Cc1c(NCCCn2ccnc2)cccc1Oc1ccc(-c2cn(C3CCOC3)c3ncnc(N)c23)cc1` (centres undefined), 110 °C; under `CC(C)CCCC(C)C1CCC2C3CC=C4CC(NCCCNC(=O)CCCCCNc5ccc([N+](=O)[O-])cc5[N+](=O)[O-])CCC4(C)C3CCC12C` (centres undefined), 165 to 166 °C.
As for `COC(=O)CCc1cc2cc(F)c(Cl)cc2n1S(=O)(=O)c1ccccc1`, the melting point lay in the range of 127 to 130 °C.
Under `O=C(O)C(Cc1ccccc1)Oc1ccc2cc(-c3cnc(Cc4ccccc4)o3)ccc2c1` (centres undefined) stands 78 to 82 °C; under `CC(C)(CNC(=O)Cc1ccccc1)NCC(O)c1cc(Cl)c(N)c(Cl)c1` (centres undefined), 96 to 98 °C; under `CN1c2ccc(-c3ccccc3)cc2S(=O)(=O)c2cc(-c3ccccc3)ccc21`, 242 to 245 °C.
On to `Cc1ccc(C(=O)Nc2nc(-c3ccccc3)c(-c3nc4ccccc4c(=O)n3-c3ccccc3)s2)cc1`, for which the melting point was above 275 °C.
The figure for `Nc1ncnc2c1ncn2[C@@H]1C=C[C@H](CO)C1` is 121 to 124 °C; for `N#CC1=C(c2cccs2)Nc2n[nH]cc2C1c1cccc(Cl)c1Cl` (centres undefined) it is 232 °C; for `CCOC(=O)c1cc(-c2csc(C)n2)[nH]n1` it is 141 to 142 °C.
In turn, `Cc1c(C(N)=O)c2ccccc2n2c(N3CCCC3)nc(-c3noc(C(C)C)n3)c12` had a melting point of 173 to 174 °C.
Under `CCOC(=O)c1ccc(C(=O)O)s1` stands above 300 °C.
The figure for `CC1=CC(C)(C)OC1=O` is 54 to 55 °C; for `CC(C)(C#N)CCCCOc1cc(-c2ccccc2)cc(-c2ccccc2)n1` it is 71 °C; for `O=C1CCC(c2ccc(F)c(F)c2)CC1` it is 61 °C.
`Cc1csc2ccc(CO)cc12` gave a melting point of 51 to 53 °C.
As for `COc1ccc2cc(C(N)=O)c(N)nc2c1OC`, the melting point lay within 218 to 219 °C.
`CC(C)(C)OC(=O)NC1C(=O)N2C(C(=O)OCc3ccc([N+](=O)[O-])cc3)=C(S)SCC12` (mixture of isomers) gave a melting point of 170 °C.
Regarding `O=[N+]([O-])c1ccc(-c2nc3c(Cl)ncnc3o2)cc1`, the melting point was determined as 231 °C.
As for `NS(=O)(=O)c1nccn1-c1nccs1`, the melting point lay in the range of 157 to 162 °C.
The figure for `CCOC(=O)COc1ccc(CSCC(=O)OCC)cc1NC(=O)c1ccc(OCCCCc2ccccc2)cc1` is 56 to 57 °C; for `COc1cc(C=CC(=O)c2c(OCC=C(C)C)ccc3c(C)cc(=O)oc23)cc(OC)c1OC` it is 148 to 150 °C; for `CCNC(=O)C1CCN(C(=O)c2cc(-c3ccccc3)c(=O)n3c2-c2sccc2CC3)CC1` it is 134 to 135 °C.
Under `C=C(F)c1cc(O)cc2nc(-c3ccc(O)c(F)c3)oc12` stands 213 to 214 °C; under `Cc1cccc2c(C(CO)=C3SC(=O)NC3=O)cccc12`, 160 to 161 °C.
The compound `O=C(NC1C=NC=CC1=O)c1ccccc1F` (centres undefined) yielded a melting point of 116 to 117 °C.
In the case of `COc1ccc(-c2cc(=O)c3cc(OCCCCCCN4CCC(O)CC4)ccc3o2)cc1`, the melting point lay within 134 to 135 °C.
The figure for `CN1CC=C(c2c[nH]c3ccc(C[C@H]4COC(=O)N4)cc23)CC1` is 225 to 227 °C.
`c1cn2ccnc2c(N2CCOCC2)n1`: the melting point is 127 °C.
`COc1ccc(C2c3c(C)c(N4CCN(c5ccc(OC)cc5)CC4)c(C)c(C)c3OC2(C)C)cc1` (centres undefined) registered a melting point of 205 to 207 °C.
For `CCOC(=O)c1c(-c2ccc(F)cc2)c(-c2ccc(F)cc2)cn1C(C)C`, the melting point came to 49 °C.
Under `CCNC(=O)NCCC1CCc2ccc(OC)cc21` (centres undefined) stands 90 to 92 °C; under `CCN(CCOc1ccc(Cl)c2[nH]cc(Cl)c12)c1ccsc1`, 123 to 125 °C.
`Cc1oc(-c2ccccc2)nc1COc1ccc(Cn2cc(CCC(=O)O)c(-c3ccccn3)c2)cc1` had a melting point of 155 to 156 °C.
The figure for `COc1c(CCC(=O)O)cccc1Oc1ccccc1C` is 71 to 75 °C; for `CC1(C2OCCO2)C=CC(C#N)=CC1` (centres undefined) it is 70 °C.
With `Cn1cnnc1C(N)(c1ccc(Cl)cc1)c1ccc2c(c1)c(-c1cccc(Cl)c1)nc1nnnn12` (centres undefined), the melting point is 220 °C.
`Nc1nc(Cl)nc2c1ncn2C1OC(CO)C(O)C1F` (centres undefined) returned a melting point of 225 to 226 °C.
Under `O=C(O)c1ccc(NC(=O)c2ccccc2-c2ccccc2)cc1Cl` stands 217 to 219 °C; under `O=c1cc(O)c2ccc(OCC(O)COc3ccccc3)cc2o1` (centres undefined), 145 to 175 °C.
The figure for `CCCC(Oc1ccccc1)C(=O)NCCO[N+](=O)[O-]` (centres undefined) is 68 to 70 °C; for `COC(=O)C(C#N)=CC=Cc1cc([N+](=O)[O-])ccc1Cl` it is 193 to 194 °C; for `COC(=O)C(Cc1ccc(OCCn2ccc3ccc(C(=O)C4CC4)nc32)cc1)OCC(F)(F)F` (centres undefined) it is 123 °C.
`O=C(Cc1ccc(OCc2ccccc2C(=O)O)cc1)NC1(C(=O)O)Cc2ccc(-c3ccc(Cl)cc3)cc2C1` (centres undefined): the melting point lay in the range of 209 to 211 °C.
Compound `C=C(C)COc1ccc2c(=O)c(C)c(-c3ccccc3)oc2c1C(=O)C=Cc1ccccc1` showed a melting point of 145 to 147 °C.
The figure for `CSc1nn2c(O)cc(CCl)nc2c1S(=O)(=O)c1ccccc1` is 215 to 217 °C; for `Fc1cccc(OC2CN(C3CCC(c4c[nH]c5cc(F)ccc45)CC3)C2)c1` (centres undefined) it is 117 to 123 °C.
The figure for `CC(=O)C(C)Oc1cc(N)c(Cl)cc1C(=O)NCCN(C)C` (centres undefined) is 124 to 125 °C.
The figure for `CCNC(=O)NCCCNn1c(COCC)nc2c(N)nc3c(c21)CCCC3` is 189 to 191 °C; for `CCCCCC(Oc1ccc(C2=CCCCCC2)cc1)C(=O)O` (centres undefined) it is 69 to 71 °C; for `COc1cc2c(cc1OC)CN(CCCc1ccc(NC(=O)c3cccc4c(=O)c5cccc(C)c5[nH]c34)cc1)CC2` it is 120 °C.
For the compound `N#Cc1ccc(C2(CBr)OCCO2)cc1`, the melting point turned out to be 92.4 °C.
The figure for `Cc1nc(NCCSCc2nc[nH]c2C)[nH]c(=O)c1CCc1ccccc1` is 222 to 224 °C.
The figure for `CCOC(=O)CCc1ccc(NC(=O)c2csc(NC(=O)NCc3ccccc3)n2)cc1` is 194 °C; for `CC(=O)NC[C@H]1CN(c2ccc(C3=CCOCC3)cc2)C(=O)O1` it is 182 to 184 °C.
Consider `CCCCCCCCCCOc1ccc(-c2ccccc2)cc1`, for which the melting point was in the range of 70 to 73 °C.
`Fc1ccc2ncn3ncnc3c2c1` registered a melting point of 193 to 195 °C.
